Experimental data as given in patent US20150316556A1, “SSEA4 AND ST3GAL2 AS CHEMOTHERAPEUTIC DRUG RESPONSE BIOMARKERS” (Miltenyi Biotech GmbH, priority 2014, published 2015).

Tests used:
[1] = system: primary tumor cell line derived from model HBCx-17 (suspension and adherent cells); experiment: IC50 values of commonly used chemotherapeutic drugs on suspension versus adherent subpopulations of a primary tumor cell line; type: cell-based, human; settings: HBCx-17 derived primary tumor cell line; n=3; suspension vs adherent subpopulation
[2] = system: epithelial breast cell line MCF10A; experiment: EMT induction in epithelial breast cell line by TGFβ1; type: cell-based, human
Description: The expression of SSEA4 was evaluated upon EMT induction. To induce a mesenchymal transition, the epithelial breast cell line MCF10A was treated with TGFβ1 at concentrations of 10 and 20 ng/ml. […] F-actin was stained by Phalloidin to visualize the cytoskeleton architecture. […] The fraction of SSEA4 positive cells was increased upon EMT induction (FIG. 8E) verifying that expression of SSEA4 indicates a more mesenchymal phenotype.
The results of the mRNA and the miRNA analysis strongly indicate that the expression of SSEA4 correlates with a more mesenchymal phenotype. […] To induce a mesenchymal transition, the epithelial breast cell line MCF10A was treated with TGFβ1 at concentrations of 10 and 20 ng/ml. […] Previously known key EMT markers like EpCAM, E-cadherin, Vimentin, and Fibronectin were regulated as expected, proving the efficiency of EMT induction using our method (FIG. 8 and data not shown). […] Strikingly, the fraction of SSEA4 positive cells was increased upon EMT induction verifying the correlation between SSEA4 expression and a more mesenchymal phenotype (FIG. 8).

Compound	IC50 values of suspension cells (higher SSEA4 expression) compared to adherent cells [1]	other results
O=c1[nH]cc(F)c(=O)[nH]1 [5-Fluorouracil]	higher IC50 values	–
CC(=O)O[C@@]12CO[C@@H]1C[C@H](O)[C@@]1(C)C(=O)[C@H](O)C3=C(C)[C@@H](OC(=O)[C@H](O)[C@@H](NC(=O)OC(C)(C)C)c4ccccc4)C[C@@](O)([C@@H](OC(=O)c4ccccc4)[C@H]21)C3(C)C [Docetaxel]	higher IC50 values	–
COc1cc([C@@H]2c3cc4c(cc3[C@@H](O[C@@H]3O[C@@H]5CO[C@@H](C)O[C@H]5[C@H](O)[C@H]3O)[C@H]3COC(=O)[C@H]23)OCO4)cc(OC)c1O [Etoposide]	no difference	–
CCc1c2c(nc3ccc(OC(=O)N4CCC(N5CCCCC5)CC4)cc13)-c1cc3c(c(=O)n1C2)COC(=O)[C@]3(O)CC [Irinotecan]	decreased IC50 values	–
CC[C@@]1(O)C(=O)OCc2c1cc1n(c2=O)Cc2cc3c(CN(C)C)c(O)ccc3nc2-1 [Topotecan]	decreased IC50 values	–
COc1cccc2c1C(=O)c1c(O)c3c(c(O)c1C2=O)C[C@@](O)(C(=O)CO)C[C@@H]3O[C@H]1C[C@H](N)[C@H](O)[C@H](C)O1 [doxorubicin]	higher IC50 values	–
TGFβ1: TGFβ1 used to induce a mesenchymal transition (EMT) in MCF10A cells	–	cell morphology upon treatment ([2]; TGFβ1 10 and 20 ng/ml): almost all cells changed their morphology from a compacted colony type to an elongated fibroblastic shape; epithelial marker E-cadherin expression upon treatment ([2]; TGFβ1 10 and 20 ng/ml): downregulated; epithelial marker EpCAM expression upon treatment ([2]; TGFβ1 10 and 20 ng/ml): downregulated; fraction of SSEA4 positive cells upon EMT induction ([2]; TGFβ1 10 and 20 ng/ml): increased; mesenchymal marker Fibronectin expression upon treatment ([2]; TGFβ1 10 and 20 ng/ml): upregulated; invasive potential of treated cells ([2]; TGFβ1, data not shown): strongly increased
